The values below come from publication PMC9737972, “Dual LSD1 and HDAC6 Inhibition Induces Doxorubicin Sensitivity in Acute Myeloid Leukemia Cells” (Cancers, 2022).

The structures appear in SMILES notation.

The target in experiment [1] is T1, Human recombinant C-ter-His-FLAG-HDAC1 (Homo sapiens, UniProt Q13547).
T1 construct: His (C); FLAG (C); purchased BPS Bioscience 50051
As to the kind of experiment: HDAC-Glo I/II enzyme assay, HDAC1. It counts as biochemical. The settings on record: ± standard error, three independent measurements.

The target of a further experiment is T2, HDAC-3/NcoR2 (Homo sapiens, UniProt O15379).
T2 construct: purchased BPS Bioscience 50003
As to the kind of experiment: HDAC-Glo I/II enzyme assay, HDAC3. Format: biochemical. The conditions noted are these: ± standard error, three independent measurements.

For a further experiment, the system named is THP-1. Put plainly: Cell Titer-Glo cell viability, THP-1. Format: cell-based. The settings on record: Homo sapiens, THP-1; 120 h, ± standard deviation, three biological repeats; read-out: IC50 cell viability THP-1. In general terms: ATP-based viability assays read luminescence as a measure of living cells.
Experiment [2] deals with MOLM-13. As to the kind of experiment: Cell Titer-Glo cell viability, MOLM-13. Format: cell-based. The conditions noted are these: Homo sapiens, MOLM-13; 120 h, ± standard deviation, three biological repeats; read-out: IC50 cell viability MOLM-13.
Another experiment deals with K-562. Put plainly: Cell Titer-Glo cell viability, K-562. It counts as cell-based. The settings on record: Homo sapiens, K562; 120 h, ± standard deviation, three biological repeats; read-out: IC50 cell viability K-562.
For the next experiment, the system named is THP-1 cells. Put plainly: RT-qPCR gene expression in THP-1 cells. Format: cell-based. The conditions noted are these: for p21 mRNA expression: THP-1 cells, 1 μM, 24 h. Here is the method:
NucleoSpin™ RNA Plus Isolation Kit (Macherey Nagel™, Dueren, Germany, 740955.50) and M-MLV Reverse Transcriptase kit (Thermo Fisher Scientific, Waltham, MA, USA, #28025013) protocols were employed for RNA isolation and cDNA synthesis, respectively, with 500 ng of RNA converted to cDNA for each sample. Gene expression levels were quantified with qRT–PCR method using a LightCycler 480 SYBR Green I Master (Roche Diagnostics, Penzberg, Germany, #50-720-3180) and normalized to β-actin or GAPDH. Briefly, 10 ng of cDNA template was amplified using 10 μL LightCycler 480 SYBR Green I Master (Roche Diagnostics), and gene-specific primers (Table S1) mixed in a final volume of 20 μL. The samples were incubated at 95 °C for 5 minutes, followed by 40 cycles of 95 °C for 10 seconds, 55 °C for 30 seconds, and 72 °C for 1 second. The relative amounts of gene expressions were calculated with the 2^(−ΔΔCT) method. All analyses were performed in duplicates and three biological replicas.
Figure 4 Assessment of biological activity through changes in methylation or acetylation and cell differentiation (A–C). Colored graphs illustrate epidrug targets and visualize expected outcomes upon target inhibition. Blue cylinders represent histone octomers (A,B) and green tubes represent microtubules (C). […] Histone methylation, histone acetylation, and α-tubulin acetylation levels were quantified from Western blot band intensities (Figure S18). Full Western blot images can be found in Figure S30. (D,E) Expression levels of mRNA were measured by RT-qPCR analysis and were normalized to two housekeeping genes, β-actin and GAPDH, for p21 and CD11b and CD86. […] Relative expression was determined with the 2(^−ΔΔCT) method, and the data are represented as the average ± standard error of the mean of two biological repeats with technical duplicates. (* p < 0.05, ** p < 0.01 student t-test). Illustrations were generated in BioRender.com.
Background: Quantitative PCR measures a nucleic acid by following its amplification.

Experiment [3] deals with MOLM-13. Put plainly: Combination treatment with doxorubicin, MOLM-13 cell viability. The settings on record: iDual 0.5 μM, iHDAC6 0.5 μM, GSK2879552 1.25 μM, ricolinostat […], 72 h then + doxorubicin 2 nM 48 h. Format: cell-based.

As usually defined, the IC50 is the concentration at which inhibition is half-maximal.

T1 sequence (Q13547 whole entry): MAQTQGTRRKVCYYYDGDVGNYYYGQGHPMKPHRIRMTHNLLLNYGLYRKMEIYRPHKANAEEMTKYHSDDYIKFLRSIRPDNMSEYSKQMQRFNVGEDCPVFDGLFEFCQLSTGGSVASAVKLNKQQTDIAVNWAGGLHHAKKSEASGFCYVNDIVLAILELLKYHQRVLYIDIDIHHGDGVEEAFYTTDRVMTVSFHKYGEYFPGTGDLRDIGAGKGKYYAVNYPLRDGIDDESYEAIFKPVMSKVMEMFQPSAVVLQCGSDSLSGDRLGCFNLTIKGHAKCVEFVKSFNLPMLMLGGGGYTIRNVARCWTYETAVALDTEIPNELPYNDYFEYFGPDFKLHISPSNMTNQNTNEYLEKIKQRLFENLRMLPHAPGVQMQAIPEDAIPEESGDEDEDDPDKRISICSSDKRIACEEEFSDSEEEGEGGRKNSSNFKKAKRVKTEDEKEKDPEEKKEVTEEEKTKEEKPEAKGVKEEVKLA
T2 sequence (O15379 whole entry): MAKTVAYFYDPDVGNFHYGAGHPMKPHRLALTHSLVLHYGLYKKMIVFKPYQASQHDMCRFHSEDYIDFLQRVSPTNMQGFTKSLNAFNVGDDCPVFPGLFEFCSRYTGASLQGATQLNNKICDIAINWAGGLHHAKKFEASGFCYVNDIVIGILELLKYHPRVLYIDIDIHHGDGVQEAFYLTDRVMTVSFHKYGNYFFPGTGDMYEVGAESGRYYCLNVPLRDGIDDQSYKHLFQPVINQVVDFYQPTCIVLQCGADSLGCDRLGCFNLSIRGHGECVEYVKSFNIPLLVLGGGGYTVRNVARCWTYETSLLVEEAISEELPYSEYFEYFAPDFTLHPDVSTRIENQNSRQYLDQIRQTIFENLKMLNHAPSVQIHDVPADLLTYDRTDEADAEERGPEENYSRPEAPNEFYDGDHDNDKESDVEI
T2 sequence (Q9Y618 395-489 partner limits assumed): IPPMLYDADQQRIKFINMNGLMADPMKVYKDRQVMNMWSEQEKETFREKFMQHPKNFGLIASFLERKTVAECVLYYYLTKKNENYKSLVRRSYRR

In the case of `O=C(NO)c1ccc(CN2CCC(CNC3(c4ccccc4)CC3)CC2)cc1` [iHDAC6], the IC50 in experiment [1] is 7.57 ± 0.29 µM; against HDAC-3/NcoR2, 4.09 ± 0.26 µM; in the experiment on THP-1, 9.7 ± 2.4 µM; with MOLM-13 [2], 6.7 ± 1.6 µM; in the experiment on K-562, 17.6 ± 1.6 µM. For the same molecule, the “p21 mRNA expression” value in the experiment on THP-1 cells was “increased”. Besides, the “cell viability after priming with compound and co-treatment with doxorubicin 2 nM” value with MOLM-13 [3] is recorded as “relatively ineffective”.

On to `O=C(NO)c1ccc(CN2CCC(CN[C@@H]3C[C@H]3c3ccccc3)CC2)cc1` (relative stereo) [iDual], for which the IC50 in experiment [1] worked out at 5.31 ± 0.25 µM; on HDAC-3/NcoR2 it was 2.29 ± 0.14 µM; in the experiment with THP-1, 16.3 ± 5.4 µM; with MOLM-13 [2], 1.3 ± 0.4 µM; with K-562, 16.6 ± 2.7 µM. Moreover, the ATM expression increase result in the experiment on THP-1 cells (THP-1, 5 μM, 72 h) is “~ two-fold”. Moreover, the ATR expression increase result with THP-1 cells (THP-1, 5 μM, 72 h) is “~ two-fold”. Also, the “expression of a panel of ABC transporters” value with THP-1 cells (THP-1, 5 μM, 72 h) was “no decrease”. Besides, in the experiment on THP-1 cells (THP-1, 5 μM, 72 h, all targets of Table 3 except Wnt7B), the “expression of doxorubicin sensitizer genes (AGPAT9, ALOX5, BTG1, HIPK2, IFI44L, LRP1)” value was “upregulated”. Further, the Rad51 expression increase result with THP-1 cells (THP-1, 5 μM, 72 h, p ≤ 0.001) is given as “three-fold”. The “p21 mRNA expression” value with THP-1 cells is recorded as “increased”. The “cell viability after priming with compound and co-treatment with doxorubicin 2 nM” value in the experiment with MOLM-13 [3] is reported as “greatest decrease”.
